Assay results as given in PMC10794144, “A novel antibiotic class targeting the lipopolysaccharide transporter” (Nature, 2024).
In brackets after ≈: the same amount, converted by molar mass.

Experiments:
P. aeruginosa ATCC 27853 = test: microbe, parasite or virus in culture; conditions: for RO7223280 MIC 100%: P. aeruginosa ATCC 27853, read at 100%
Method in brief: (§1)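 Broth microdilution per CLSI M07/M100, with inocula diluted from a 0.5 McFarland suspension in CAMHB, or LB for A. baylyi. MIC was read as the lowest concentration inhibiting growth by eye or beyond which OD600 stopped decreasing.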

A. baumannii = test: microbe, parasite or virus in culture; conditions: for RO7223280 MIC 80%: read at 80%; for RO7223280 MIC 100%: read at 100%
Method in brief: as §1

[1] = A. baumannii ATCC 17978, Study LGC308175
[2] = A. baumannii ATCC 19606, Study LGC296813
[3] = A. baumannii ATCC 19606, Study LGC299544
[4] = A. baumannii ATCC 19606, Study LGC308175
[5] = A. baumannii ROB08701, Study LGC296813
[6] = A. baumannii ROB08701, Study LGC299544
[7] = A. baumannii ROB08701, Study LGC308175
[8] = A. baumannii ROB08702, Study LGC296813
[9] = A. baumannii ROB08702, Study LGC299544
[10] = A. baumannii ROB08702, Study LGC308175
[11] = A. baumannii ROB08703, Study LGC296813
[12] = A. baumannii ROB08703, Study LGC299544
[13] = A. baumannii ROB08703, Study LGC308175
[14] = A. baumannii ROB08704, Study LGC296813
[15] = A. baumannii ROB08704, Study LGC299544
[16] = A. baumannii ROB08704, Study LGC308175
[17] = A. baumannii ROB08705, Study LGC296813
[18] = A. baumannii ROB08705, Study LGC299544
[19] = A. baumannii ROB08705, Study LGC308175
[20] = A. baumannii ROB08706, Study LGC296813
[21] = A. baumannii ROB08706, Study LGC299544
[22] = A. baumannii ROB08706, Study LGC308175
[23] = A. baumannii ROB08707, Study LGC296813
[24] = A. baumannii ROB08707, Study LGC299544
[25] = A. baumannii ROB08707, Study LGC308175
[26] = A. baumannii ROB08708, Study LGC296813
[27] = A. baumannii ROB08708, Study LGC299544
[28] = A. baumannii ROB08708, Study LGC308175
[29] = A. baumannii ROB08709, Study LGC296813
[30] = A. baumannii ROB08709, Study LGC299544
[31] = A. baumannii ROB08709, Study LGC308175
[32] = A. baumannii ROB08710, Study LGC296813
[33] = A. baumannii ROB08710, Study LGC299544
[34] = A. baumannii ROB08710, Study LGC308175

For `CN1C(=O)[C@H](CCCCN)NC(=O)[C@H](CCCN)NCc2cccnc2Sc2cccc(-c3ccc(C(=O)O)cc3)c2CNC(=O)[C@@H]1Cc1c[nH]c2ccccc12` [zosurabalpin], the “RO7223280 MIC 100%” value (P. aeruginosa ATCC 27853; Study LGC296813) was over 64 µg/mL, the “RO7223280 MIC 100%” value (P. aeruginosa ATCC 27853; Study LGC299544) was over 64 µg/mL and the “RO7223280 MIC 100%” value (P. aeruginosa ATCC 27853; Study LGC308175) was over 64 µg/mL. The MIC (P. aeruginosa ATCC 27853; Pseudomonas aeruginosa, ATCC27853) was over 64 µg/mL, the MIC range (A. baumannii; 10 MDR isolates, CAMHB, MCPs read at 80% growth inhibition) was 0.12 to 1 µg/mL and the “RO7223280 MIC 80%” value (A. baumannii; [1]) was at most 0.06 µg/mL. The “RO7223280 MIC 100%” value (A. baumannii; [1]) was 0.12 µg/mL, the “RO7223280 MIC 80%” value (A. baumannii; [2]) was 0.25 µg/mL and the “RO7223280 MIC 100%” value (A. baumannii; [2]) was 0.25 µg/mL. The “RO7223280 MIC 80%” value (A. baumannii; [3]) was 0.25 µg/mL, the “RO7223280 MIC 100%” value (A. baumannii; [3]) was 0.25 µg/mL and the “RO7223280 MIC 80%” value (A. baumannii; [4]) was 0.25 µg/mL. The “RO7223280 MIC 100%” value (A. baumannii; [4]) was 0.25 µg/mL, the “RO7223280 MIC 80%” value (A. baumannii; [5]) was 0.25 µg/mL and the “RO7223280 MIC 100%” value (A. baumannii; [5]) was 0.25 µg/mL. The “RO7223280 MIC 80%” value (A. baumannii; [6]) was 0.12 µg/mL, the “RO7223280 MIC 100%” value (A. baumannii; [6]) was 0.5 µg/mL and the “RO7223280 MIC 80%” value (A. baumannii; [7]) was 0.25 µg/mL. The “RO7223280 MIC 100%” value (A. baumannii; [7]) was 0.25 µg/mL, the “RO7223280 MIC 80%” value (A. baumannii; [8]) was 0.25 µg/mL and the “RO7223280 MIC 100%” value (A. baumannii; [8]) was 0.25 µg/mL. For the same compound, the “RO7223280 MIC 80%” value (A. baumannii; [9]) was 0.25 µg/mL, the “RO7223280 MIC 100%” value (A. baumannii; [9]) was over 64 µg/mL and the “RO7223280 MIC 80%” value (A. baumannii; [10]) was 0.25 µg/mL. The “RO7223280 MIC 100%” value (A. baumannii; [10]) was over 64 µg/mL, the “RO7223280 MIC 80%” value (A. baumannii; [11]) was 0.25 µg/mL and the “RO7223280 MIC 100%” value (A. baumannii; [11]) was 0.5 µg/mL. The “RO7223280 MIC 80%” value (A. baumannii; [12]) was 0.25 µg/mL, the “RO7223280 MIC 100%” value (A. baumannii; [12]) was 0.5 µg/mL and the “RO7223280 MIC 80%” value (A. baumannii; [13]) was 0.5 µg/mL. For the same compound, the “RO7223280 MIC 100%” value (A. baumannii; [13]) was 0.5 µg/mL, the “RO7223280 MIC 80%” value (A. baumannii; [14]) was 0.25 µg/mL and the “RO7223280 MIC 100%” value (A. baumannii; [14]) was 0.5 µg/mL. For the same compound, the “RO7223280 MIC 80%” value (A. baumannii; [15]) was 0.25 µg/mL, the “RO7223280 MIC 100%” value (A. baumannii; [15]) was 1 µg/mL and the “RO7223280 MIC 80%” value (A. baumannii; [16]) was 0.5 µg/mL. For the same compound, the “RO7223280 MIC 100%” value (A. baumannii; [16]) was 0.5 µg/mL, the “RO7223280 MIC 80%” value (A. baumannii; [17]) was 0.25 µg/mL and the “RO7223280 MIC 100%” value (A. baumannii; [17]) was 0.25 µg/mL. The “RO7223280 MIC 80%” value (A. baumannii; [18]) was 0.12 µg/mL, the “RO7223280 MIC 100%” value (A. baumannii; [18]) was 0.12 µg/mL and the “RO7223280 MIC 80%” value (A. baumannii; [19]) was at most 0.06 µg/mL. For the same compound, the “RO7223280 MIC 100%” value (A. baumannii; [19]) was 0.12 µg/mL, the “RO7223280 MIC 80%” value (A. baumannii; [20]) was 1 µg/mL and the “RO7223280 MIC 100%” value (A. baumannii; [20]) was 1 µg/mL. The “RO7223280 MIC 80%” value (A. baumannii; [21]) was 1 µg/mL, the “RO7223280 MIC 100%” value (A. baumannii; [21]) was over 64 µg/mL and the “RO7223280 MIC 80%” value (A. baumannii; [22]) was 2 µg/mL. For the same compound, the “RO7223280 MIC 100%” value (A. baumannii; [22]) was over 64 µg/mL, the “RO7223280 MIC 80%” value (A. baumannii; [23]) was 0.25 µg/mL and the “RO7223280 MIC 100%” value (A. baumannii; [23]) was 0.25 µg/mL. For the same compound, the “RO7223280 MIC 80%” value (A. baumannii; [24]) was 0.12 µg/mL, the “RO7223280 MIC 100%” value (A. baumannii; [24]) was 0.12 µg/mL and the “RO7223280 MIC 80%” value (A. baumannii; [25]) was 0.12 µg/mL. For the same compound, the “RO7223280 MIC 100%” value (A. baumannii; [25]) was 0.12 µg/mL, the “RO7223280 MIC 80%” value (A. baumannii; [26]) was 0.25 µg/mL and the “RO7223280 MIC 100%” value (A. baumannii; [26]) was 0.25 µg/mL. For the same compound, the “RO7223280 MIC 80%” value (A. baumannii; [27]) was 0.12 µg/mL, the “RO7223280 MIC 100%” value (A. baumannii; [27]) was over 64 µg/mL and the “RO7223280 MIC 80%” value (A. baumannii; [28]) was 0.12 µg/mL. The “RO7223280 MIC 100%” value (A. baumannii; [28]) was over 64 µg/mL, the “RO7223280 MIC 80%” value (A. baumannii; [29]) was 0.25 µg/mL and the “RO7223280 MIC 100%” value (A. baumannii; [29]) was 0.25 µg/mL. The “RO7223280 MIC 80%” value (A. baumannii; [30]) was 0.25 µg/mL, the “RO7223280 MIC 100%” value (A. baumannii; [30]) was over 64 µg/mL and the “RO7223280 MIC 80%” value (A. baumannii; [31]) was 0.25 µg/mL. The “RO7223280 MIC 100%” value (A. baumannii; [31]) was over 64 µg/mL, the “RO7223280 MIC 80%” value (A. baumannii; [32]) was 0.25 µg/mL and the “RO7223280 MIC 100%” value (A. baumannii; [32]) was over 64 µg/mL. For the same compound, the “RO7223280 MIC 80%” value (A. baumannii; [33]) was 0.25 µg/mL, the “RO7223280 MIC 100%” value (A. baumannii; [33]) was over 64 µg/mL and the “RO7223280 MIC 80%” value (A. baumannii; [34]) was 0.25 µg/mL. The “RO7223280 MIC 100%” value (A. baumannii; [34]) was over 64 µg/mL, the MIC90 (A. baumannii; Acinetobacter baumannii, 10 MDR isolates, CAMHB, MCPs read at 80% growth inhibition) was 0.25 µg/mL (≈ 0.316 µM) and the MIC (A. baumannii; Acinetobacter baumannii, ACC00445, CAMHB, MCPs read at 80% inhibition) was 0.12 µg/mL (≈ 0.152 µM). The MIC (A. baumannii; Acinetobacter baumannii, ACC00535, CAMHB, MCPs read at 80% inhibition) was 0.12 µg/mL (≈ 0.152 µM), the MIC (A. baumannii; Acinetobacter baumannii, ACC01073, CAMHB, MCPs read at 80% inhibition) was 1 µg/mL (≈ 1.26 µM) and the MIC (A. baumannii; Acinetobacter baumannii, ACC01077, CAMHB, MCPs read at 80% inhibition) was 0.12 µg/mL (≈ 0.152 µM). The MIC (A. baumannii; Acinetobacter baumannii, ACC01085 / AR0307, CAMHB, MCPs read at 80% inhibition) was 0.5 µg/mL (≈ 0.632 µM), the MIC (A. baumannii; Acinetobacter baumannii, ATCC17978, ATCC 17978, CAMHB, MCPs read at 80% inhibition) was at most 0.06 µg/mL and the MIC (A. baumannii; Acinetobacter baumannii, ATCC17978, ATCC 17978, CAMHB, one replicate, MCPs read at 80% growth inhibition) was at most 0.06 µg/mL. The MIC (A. baumannii; Acinetobacter baumannii, ATCC19606, ATCC 19606, CAMHB, MCPs read at 80% growth inhibition) was 0.25 µg/mL (≈ 0.316 µM), the MIC (A. baumannii; Acinetobacter baumannii, ATCC19606, ATCC 19606, CAMHB, MCPs read at 80% inhibition) was 0.12 µg/mL (≈ 0.152 µM) and the MIC (A. baumannii; Acinetobacter baumannii, ATCCBAA747, ATCC BAA-747, CAMHB, MCPs read at 80% inhibition) was at most 0.06 µg/mL. It also gave an MIC (A. baumannii; Acinetobacter baumannii, ROB08701, CAMHB, MCPs read at 80% inhibition) of 0.25 µg/mL (≈ 0.316 µM), an MIC (A. baumannii; Acinetobacter baumannii, ROB08702, CAMHB, MCPs read at 80% inhibition) of 0.12 µg/mL (≈ 0.152 µM) and an MIC (A. baumannii; Acinetobacter baumannii, ROB08703, CAMHB, MCPs read at 80% inhibition) of 0.5 µg/mL (≈ 0.632 µM). The MIC (A. baumannii; Acinetobacter baumannii, ROB08704, CAMHB, MCPs read at 80% inhibition) was 0.25 µg/mL (≈ 0.316 µM), the MIC (A. baumannii; Acinetobacter baumannii, ROB08705, CAMHB, MCPs read at 80% inhibition) was 0.25 µg/mL (≈ 0.316 µM) and the MIC (A. baumannii; Acinetobacter baumannii, ROB08706, CAMHB, MCPs read at 80% inhibition) was 0.5 µg/mL (≈ 0.632 µM). It also gave an MIC (A. baumannii; Acinetobacter baumannii, ROB08707, CAMHB, MCPs read at 80% inhibition) of at most 0.06 µg/mL, an MIC (A. baumannii; Acinetobacter baumannii, ROB08708, CAMHB, MCPs read at 80% inhibition) of 0.12 µg/mL (≈ 0.152 µM) and an MIC (A. baumannii; Acinetobacter baumannii, ROB08709, CAMHB, MCPs read at 80% inhibition) of at most 0.06 µg/mL. It also gave an MIC (A. baumannii; Acinetobacter baumannii, ROB08710, CAMHB, MCPs read at 80% inhibition) of 0.12 µg/mL (≈ 0.152 µM).
